Reference: US8211909B2, “Treatment of antibiotic-resistant bacteria infection” (TaiGen Biotechnology Co., Ltd., priority 2008, dated 2012)
Values after ≈ are worked out from the molar mass of the structure shown. Where two headings read alike, the source gives them in different places. Blank lines part the entries; values can stand above or below the molecule they belong to.

Legend:
[1] = tested on: Methicillin-resistant Staphylococcus aureus (MRSA) isolates; experiment: MIC by broth microdilution (CLSI) against CAN-ICU MRSA isolates; format: cell-based; details: Staphylococcus aureus; for MIC50: read-out: MIC50; for MIC90: read-out: MIC90
Text: MRSA isolates (n=193) were obtained as part of the Canadian National Intensive Care Unit (CAN-ICU) Study. 19 medical centers from all regions of Canada with active ICUs participated in the CAN-ICU study included. They were requested to only obtain “clinically significant” specimens from patients with a presumed infectious disease. Surveillance swabs, eye, ear, nose and throat swabs were excluded. Anaerobic organisms and fungal organisms were also excluded.
From September 2005-June 2006 (inclusive), each center collected a maximum of 300 consecutive pathogens isolated from blood, urine, tissue/wound, and respiratory specimens (one pathogen per cultured site per patient) of ICU patients. These isolates were shipped to the reference laboratory (Health Sciences Centre, Winnipeg, Canada) on Amies charcoal swabs, subcultured in appropriate media, and stocked in skim milk at −80° C.
All isolates underwent mecA PCR, as well as molecular characterization (including PVL analysis and fingerprinting), as previously described, to assess whether they were community-associated or healthcare-associated (Christianson et al., J Clin Microbiol. 2007, 45 (6): 1904-11; Mulvey et al., J Clin. Microbiol. 2001, 39(10): 3481-5; Mulvey et al., Emerg Infect Dis. 2005,11(6): 844-50; Oliveira et al., Antimicrob Agents Chemother. 2002, 46(7): 2155-61). The isolates were also subtyped using pulsed-field gel electrophoresis (PFGE) following the Canadian standardized protocol as previously described (Mulvey et al., J Clin Microbiol. 2001, 39(10): 3481-5). Their PFGE fingerprints thus obtained were analyzed with BioNumerics v3.5 (Applied Maths St. Marten-Latem, Belgium) using a position tolerance of 1.0 and an optimization of 1.0. Strain relatedness was determined as previously described (Tenover et al., 1995). The fingerprints of the isolates were compared to the national MRSA fingerprint database and were grouped into one of 10 Canadian epidemic MRSA (CMRSA-1, CMRSA-2, etc) as previously described (Mulvey et al., Emerg Infect Dis. 2005,11(6):844-50).
Compound 1 and other antibiotics were tested for their inhibitory activity against the MRSA isolates using the broth microdilution guidelines as stipulated by the Clinical and Laboratory Standards Institute.

H. pylori isolates = experiment: MIC by agar dilution against 200 H. pylori isolates (Taiwan); format: cell-based, Helicobacter pylori
Description: MICs were determined using the agar dilution methods recommended by the Clinical and Laboratory Standards Institute (CLSI-M100-S18).

[2] = tested on: Staphylococcus aureus strains (MRSA, hVISA, VISA, VRSA, quinolone-resistant MRSA); experiment: MIC by agar dilution against Staphylococcal strains (MRSA, hVISA, VISA, VRSA, quinolone-resistant MRSA); format: cell-based; details: Staphylococcus aureus
Description: Compound 1 was tested for its inhibitory effect against 26 Methicillin-resistant Staphylococcus aureus (MRSA) strains, 2 hetero-Vancomycin intermediate Staphylococcus aureus (hVISA) strains, 24 Vancomycin-intermediate Staphylococcus aureus (VISA) strains, 5 Vancomycin-resistant Staphylococcus aureus (VRSA) strains, and 31 quinolone-resistant Vancomycin-susceptibale MRSA strains with defined mutations in QRDR. These mutations were determined by sequencing analysis of the QRDR (gyrA, gyrB, grlA, and grlB). Efflux testing was performed by the reserpine method (Brenwald, et al., Antimicrob. Agents Chemother. 1998, 42: 2032-2035).

[3] = MRSA (n = 193), read-out: MIC Range Max
[4] = MRSA (n = 193), read-out: MIC Range Min
[5] = hVISA(2) + VISA (24) + VRSA (5)
[6] = read-out: MIC Range, Quinolone-resistant MRSA (31)
[7] = read-out: MIC Range, hVISA(2) + VISA (24) + VRSA (5)
[8] = Helicobacter pylori, 200 isolates of H. pylori
[9] = MRSA / USA100, USA 100/800 (HA-MRSA)
[10] = MRSA / USA200, USA 200 (HA-MRSA)
[11] = MRSA / USA300, USA 300 (CA-MRSA)
[12] = MRSA / USA400, USA 400 (CA-MRSA)
[13] = MRSA / USA600, USA 600 (HA-MRSA)

MIC50 ([1]; MRSA (n = 193)): 128 µg/mL (≈ 282 µM) | MIC90 ([1]; MRSA (n = 193)): > 128 µg/mL | MIC [1, 3]: > 128 µg/mL | MIC [1, 4]: 2 µg/mL (≈ 4.4 µM)
Structure (SMILES): Cc1nnc(SCC2=C(C(=O)O)N3C(=O)[C@@H](NC(=O)Cn4cnnn4)[C@H]3SC2)s1 [Cefazolin]

MIC50 ([1]; MRSA (n = 193)): > 64 µg/mL | MIC90 ([1]; MRSA (n = 193)): > 64 µg/mL | MIC [1, 3]: > 64 µg/mL | MIC [1, 4]: 8 µg/mL (≈ 14.4 µM)
Structure (SMILES): CO/N=C(\C(=O)N[C@@H]1C(=O)N2C(C(=O)O)=C(CSc3nc(=O)c(=O)[nH]n3C)CS[C@H]12)c1csc(N)n1 [Ceftriaxone]

MIC50 ([1]; MRSA (n = 193)): > 32 µg/mL | MIC90 ([1]; MRSA (n = 193)): > 32 µg/mL | MIC [1, 3]: > 32 µg/mL | MIC [1, 4]: 0.25 µg/mL (≈ 0.334 µM)
Structure (SMILES): CC[C@H]1OC(=O)[C@H](C)[C@@H](O[C@H]2C[C@@](C)(OC)[C@@H](O)[C@H](C)O2)[C@H](C)[C@@H](O[C@@H]2O[C@H](C)C[C@H](N(C)C)[C@H]2O)[C@](C)(OC)C[C@@H](C)C(=O)[C@H](C)[C@@H](O)[C@]1(C)O [Clarithromycin]
share of isolates resistant (H. pylori isolates; 200 H. pylori isolates, resistance: amoxicillin MICs≧0.5, clarithromycin ≧1, metronidazole ≧8, ciprofloxacin ≧1, levofloxacin ≧1 μg/mL): 6%

MIC50 ([1]; MRSA (n = 193)): > 8 µg/mL | MIC90 ([1]; MRSA (n = 193)): > 8 µg/mL | MIC [1, 3]: > 8 µg/mL | MIC [1, 4]: ≤ 0.12 µg/mL
Structure (SMILES): CCC[C@@H]1C[C@@H](C(=O)N[C@@H]([C@H]2O[C@H](SC)[C@H](O)[C@@H](O)[C@H]2O)[C@H](C)Cl)N(C)C1 [Clindamycin]

Structure (SMILES): CCCCCCCCCC(=O)N[C@@H](Cc1c[nH]c2ccccc12)C(=O)N[C@H](CC(N)=O)C(=O)N[C@@H](CC(=O)O)C(=O)N[C@@H]1C(=O)NCC(=O)N[C@@H](CCCN)C(=O)N[C@@H](CC(=O)O)C(=O)N[C@H](C)C(=O)N[C@@H](CC(=O)O)C(=O)NCC(=O)N[C@H](CO)C(=O)N[C@@H]([C@H](C)CC(=O)O)C(=O)N[C@@H](CC(=O)c2ccccc2N)C(=O)O[C@@H]1C [Daptomycin]
MIC50 ([2]; MRSA (26)): 1 µg/mL (≈ 0.617 µM) | MIC90 ([2]; MRSA (26)): 1 µg/mL (≈ 0.617 µM) | MIC50 ([2]; Quinolone-resistant MRSA (31)): 0.25 µg/mL (≈ 0.154 µM) | MIC90 ([2]; Quinolone-resistant MRSA (31)): 0.25 µg/mL (≈ 0.154 µM) | MIC50 [2, 5]: 1 µg/mL | MIC90 [2, 5]: 2 µg/mL | MIC ([2]; read-out: MIC Range, MRSA (26)): 0.5 to 1 µg/mL (≈ 0.309 to 0.617 µM) | MIC [2, 6]: 0.12 to 1 µg/mL (≈ 0.074 to 0.617 µM) | MIC [2, 7]: 0.12 to 4 µg/mL | MIC50 ([1]; MRSA (n = 193)): 0.25 µg/mL (≈ 0.154 µM) | MIC90 ([1]; MRSA (n = 193)): 0.5 µg/mL (≈ 0.309 µM) | MIC [1, 3]: 0.5 µg/mL (≈ 0.309 µM) | MIC [1, 4]: 0.25 µg/mL (≈ 0.154 µM)

MIC50 (H. pylori isolates; [8]): 60 µg/mL (≈ 154 µM) | MIC90 (H. pylori isolates; [8]): 120 µg/mL (≈ 308 µM)
Structure (SMILES): CO/N=C1\CN(c2nc3c(cc2F)c(=O)c(C(=O)O)cn3C2CC2)CC1CN (stereo not shown) [Gemifloxacin]

Structure (SMILES): CC(=O)NC[C@H]1CN(c2ccc(N3CCOCC3)c(F)c2)C(=O)O1 [Linezolid]
MIC50 ([2]; MRSA (26)): 4 µg/mL (≈ 11.9 µM) | MIC90 ([2]; MRSA (26)): 4 µg/mL (≈ 11.9 µM) | MIC50 ([2]; Quinolone-resistant MRSA (31)): 1 µg/mL (≈ 2.96 µM) | MIC90 ([2]; Quinolone-resistant MRSA (31)): 1 µg/mL (≈ 2.96 µM) | MIC50 [2, 5]: 1 µg/mL | MIC90 [2, 5]: 1 µg/mL | MIC ([2]; read-out: MIC Range, MRSA (26)): 2 to 4 µg/mL (≈ 5.93 to 11.9 µM) | MIC [2, 6]: 0.25 to 1 µg/mL (≈ 0.741 to 2.96 µM) | MIC [2, 7]: 0.5 to 2 µg/mL | MIC50 [1, 9]: 2 µg/mL (≈ 5.93 µM) | MIC90 [1, 9]: 2 µg/mL (≈ 5.93 µM) | MIC50 [1, 10]: 2 µg/mL (≈ 5.93 µM) | MIC90 [1, 10]: 2 µg/mL (≈ 5.93 µM) | MIC50 [1, 11]: 1 µg/mL (≈ 2.96 µM) | MIC90 [1, 11]: 2 µg/mL (≈ 5.93 µM) | MIC50 [1, 12]: 2 µg/mL (≈ 5.93 µM) | MIC90 [1, 12]: 2 µg/mL (≈ 5.93 µM) | MIC50 [1, 13]: 2 µg/mL (≈ 5.93 µM) | MIC90 [1, 13]: 2 µg/mL (≈ 5.93 µM) | MIC50 ([1]; MRSA (n = 193)): 2 µg/mL (≈ 5.93 µM) | MIC90 ([1]; MRSA (n = 193)): 2 µg/mL (≈ 5.93 µM) | MIC [1, 3]: 4 µg/mL (≈ 11.9 µM) | MIC [1, 4]: 0.5 µg/mL (≈ 1.48 µM)
